{"source": "patent US20060177530A1", "about": "“Method of treating diabetes type II” (priority 2003, published 2006)", "system": "mice", "assay": "Safety and toxicity studies in mice", "assay_type": "in vivo", "conditions": "0.5, 1 and 2 g/kg", "procedure": "The clinical dose of HT is in the range of 1-2000 mg/day, more preferably in the range of 5-500 mg/day and most preferably 10-100 mg/day.", "data": [{"smiles": "OCCc1ccc(O)c(O)c1", "note": "[HT, hydroxytyrosol]", "values": [{"measurement": "clinical or pathological toxicity", "value": "no clinical or pathological toxicity"}]}]}
